Earlier results, collected in patent US20140107523A1, “MODEL FOR TRAUMATIC BRAIN INJURY” (University of Rochester, priority 2012, published 2014).

Tested on: NMDA receptor
Details: rats treated with the NMDA receptor blocker; spatial learning

N[C@@H](CCCP(=O)(O)O)C(=O)O [APV]
performance in the Morris water maze: perform poorly
